ChEMBL document CHEMBL3638496, “Pyrazolopyrrolidine derivatives and their use in the treatment of disease” (2015)

Tests used:
CREB-binding protein = CREB-binding protein (Homo sapiens, UniProt Q92793); assay: AlphaScreen In-Vitro Binding Assay: In order to assess bromodomain selectivity, we set up a binding assay using the bromodomain encoded by the CREBBP gene. Compounds were tested in the CREBBP assay with a similar protocol, however using AlphaScreen (Amplified Luminescent Proximity Homogeneous Assay, Perkin Elmer) as detection readout instead of TR-FRET. The assay was started by stepwise addition of 4.5 uL per well of bromo domain protein (50 mM HEPES, pH 7.5, 0.005% Tween20, 0.02% BSA, 150 mM NaCl, 324 nM His-CREBBP (1081-1197) (custom production at Viva Biotech Ltd.)) and 4.5 uL per well of peptide solution (50 mM HEPES, pH 7.5, 0.005% Tween20, 0.02% BSA, 150 mM NaCl, 120 nM acetyl-histone H4 (AcK 5, 8, 12) (Biosyntan GmbH)). Reactions were incubated at 30 C. for 35 minutes. Subsequently 4.5 uL per well detection mix (50 mM HEPES, pH 7.5, 0.005% Tween20, 0.02% BSA, 150 mM NaCl, 45 ug/ml Ni-chelate acceptor beads, 45 ug/mL streptavidin-donor beads) (Perkin Elmer)) were added.
[1] = target: Bromodomain-containing protein 2 (Homo sapiens, UniProt P25440); assay: (§1) TR-FRET In-Vitro Binding Assay: All assays were performed in 384-well microtiter plates. Each assay plate contained 8-point serial dilutions for 40 test compounds, plus 16 high- and 16 low controls. Liquid handling and incubation steps were done on an Innovadyne Nanodrop Express equipped with a robotic arm (Thermo CatX, Perkin Elmer/Caliper Twister II) and an incubator (Liconic STX40, Thermo Cytomat 2C450). The assay plates were prepared by addition of 50 nl per well of compound solution in 90% DMSO HummingBird nanodispenser (Zinsser Analytic). The assay was started by stepwise addition of 4.5 uL per well of bromo domain protein (50 mM HEPES, pH 7.5, 0.005% Tween20, 0.1% BSA, 50 mM NaCl, 45 nM His-Brd2(60-472) or 45 nM His-Brd3(20-477) or 45 nM His-Brd4(44-477) all proteins produced in-house) and 4.5 uL per well of peptide solution (50 mM HEPES, pH 7.5, 0.005% Tween20, 0.1% BSA, 50 mM NaCl, 60 nM acetyl-histone H4 (AcK 5, 8, 12, 16) (Biosyntan GmbH)). Reactions were incubated at 30 C. for 35 minutes.
[2] = target: Bromodomain-containing protein 3 (Homo sapiens, UniProt Q15059); assay: as §1
[3] = target: Bromodomain-containing protein 4 (Homo sapiens, UniProt O60885); assay: as §1

CREB-binding protein, sequence (Q92793 whole entry, the tested form may be a part): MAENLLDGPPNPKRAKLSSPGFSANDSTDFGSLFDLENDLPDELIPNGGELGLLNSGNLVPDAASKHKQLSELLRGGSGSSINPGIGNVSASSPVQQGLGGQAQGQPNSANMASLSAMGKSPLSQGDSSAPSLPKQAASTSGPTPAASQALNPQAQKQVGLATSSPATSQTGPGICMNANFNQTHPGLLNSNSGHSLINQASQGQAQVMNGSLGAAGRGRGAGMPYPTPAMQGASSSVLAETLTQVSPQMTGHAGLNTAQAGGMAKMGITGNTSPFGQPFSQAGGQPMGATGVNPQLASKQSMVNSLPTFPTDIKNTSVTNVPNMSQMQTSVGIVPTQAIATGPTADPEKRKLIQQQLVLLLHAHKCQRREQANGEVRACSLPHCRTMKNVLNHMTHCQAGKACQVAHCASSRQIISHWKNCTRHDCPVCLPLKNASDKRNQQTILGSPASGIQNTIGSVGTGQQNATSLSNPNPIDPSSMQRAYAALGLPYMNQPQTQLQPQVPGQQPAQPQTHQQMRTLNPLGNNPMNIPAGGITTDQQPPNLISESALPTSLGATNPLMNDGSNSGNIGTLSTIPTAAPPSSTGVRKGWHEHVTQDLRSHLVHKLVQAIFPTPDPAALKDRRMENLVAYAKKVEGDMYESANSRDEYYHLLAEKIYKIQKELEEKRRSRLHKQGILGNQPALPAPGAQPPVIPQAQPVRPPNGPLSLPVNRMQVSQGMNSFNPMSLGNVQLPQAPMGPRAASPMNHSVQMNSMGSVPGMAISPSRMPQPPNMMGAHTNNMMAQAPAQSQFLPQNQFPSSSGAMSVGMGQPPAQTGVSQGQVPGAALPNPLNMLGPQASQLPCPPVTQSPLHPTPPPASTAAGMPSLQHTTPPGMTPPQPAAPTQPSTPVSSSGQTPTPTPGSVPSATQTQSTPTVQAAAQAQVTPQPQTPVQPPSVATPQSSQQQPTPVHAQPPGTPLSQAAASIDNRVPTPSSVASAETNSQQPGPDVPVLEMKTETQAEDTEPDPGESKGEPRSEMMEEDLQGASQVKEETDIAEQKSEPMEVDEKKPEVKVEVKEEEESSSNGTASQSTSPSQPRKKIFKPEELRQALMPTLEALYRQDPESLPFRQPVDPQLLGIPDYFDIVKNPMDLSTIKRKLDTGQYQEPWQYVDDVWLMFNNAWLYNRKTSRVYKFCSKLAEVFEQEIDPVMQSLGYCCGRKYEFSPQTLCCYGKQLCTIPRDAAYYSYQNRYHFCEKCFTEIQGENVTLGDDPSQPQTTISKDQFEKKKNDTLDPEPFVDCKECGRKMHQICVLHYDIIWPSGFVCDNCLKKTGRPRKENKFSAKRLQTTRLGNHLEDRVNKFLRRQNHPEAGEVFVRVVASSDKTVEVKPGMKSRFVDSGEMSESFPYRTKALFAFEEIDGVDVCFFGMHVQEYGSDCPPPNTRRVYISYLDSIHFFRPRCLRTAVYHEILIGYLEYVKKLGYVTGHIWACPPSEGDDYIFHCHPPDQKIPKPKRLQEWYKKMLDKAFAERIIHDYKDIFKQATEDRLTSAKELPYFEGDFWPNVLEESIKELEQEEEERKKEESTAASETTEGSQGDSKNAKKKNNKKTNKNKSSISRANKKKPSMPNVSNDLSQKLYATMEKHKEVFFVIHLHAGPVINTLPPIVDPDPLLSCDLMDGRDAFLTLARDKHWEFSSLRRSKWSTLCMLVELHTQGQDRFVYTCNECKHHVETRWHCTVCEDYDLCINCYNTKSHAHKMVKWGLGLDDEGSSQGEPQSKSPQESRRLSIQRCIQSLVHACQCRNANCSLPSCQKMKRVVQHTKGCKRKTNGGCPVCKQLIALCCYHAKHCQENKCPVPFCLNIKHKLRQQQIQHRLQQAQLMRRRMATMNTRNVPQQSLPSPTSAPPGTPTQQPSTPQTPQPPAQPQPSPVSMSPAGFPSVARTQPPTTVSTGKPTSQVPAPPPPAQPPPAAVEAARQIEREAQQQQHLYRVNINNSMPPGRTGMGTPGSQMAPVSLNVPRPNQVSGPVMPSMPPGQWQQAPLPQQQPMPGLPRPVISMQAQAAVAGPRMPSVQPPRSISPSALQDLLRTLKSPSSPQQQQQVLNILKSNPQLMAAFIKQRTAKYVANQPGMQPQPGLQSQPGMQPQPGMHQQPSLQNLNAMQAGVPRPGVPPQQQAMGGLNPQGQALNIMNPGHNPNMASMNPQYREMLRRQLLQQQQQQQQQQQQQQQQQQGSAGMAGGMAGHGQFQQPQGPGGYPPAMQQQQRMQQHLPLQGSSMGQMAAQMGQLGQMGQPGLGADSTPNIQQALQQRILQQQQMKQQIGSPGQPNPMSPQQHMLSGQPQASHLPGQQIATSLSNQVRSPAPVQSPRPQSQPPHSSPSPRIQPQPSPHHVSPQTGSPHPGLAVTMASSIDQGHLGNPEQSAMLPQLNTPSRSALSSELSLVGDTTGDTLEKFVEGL
Bromodomain-containing protein 3, sequence (Q15059 whole entry): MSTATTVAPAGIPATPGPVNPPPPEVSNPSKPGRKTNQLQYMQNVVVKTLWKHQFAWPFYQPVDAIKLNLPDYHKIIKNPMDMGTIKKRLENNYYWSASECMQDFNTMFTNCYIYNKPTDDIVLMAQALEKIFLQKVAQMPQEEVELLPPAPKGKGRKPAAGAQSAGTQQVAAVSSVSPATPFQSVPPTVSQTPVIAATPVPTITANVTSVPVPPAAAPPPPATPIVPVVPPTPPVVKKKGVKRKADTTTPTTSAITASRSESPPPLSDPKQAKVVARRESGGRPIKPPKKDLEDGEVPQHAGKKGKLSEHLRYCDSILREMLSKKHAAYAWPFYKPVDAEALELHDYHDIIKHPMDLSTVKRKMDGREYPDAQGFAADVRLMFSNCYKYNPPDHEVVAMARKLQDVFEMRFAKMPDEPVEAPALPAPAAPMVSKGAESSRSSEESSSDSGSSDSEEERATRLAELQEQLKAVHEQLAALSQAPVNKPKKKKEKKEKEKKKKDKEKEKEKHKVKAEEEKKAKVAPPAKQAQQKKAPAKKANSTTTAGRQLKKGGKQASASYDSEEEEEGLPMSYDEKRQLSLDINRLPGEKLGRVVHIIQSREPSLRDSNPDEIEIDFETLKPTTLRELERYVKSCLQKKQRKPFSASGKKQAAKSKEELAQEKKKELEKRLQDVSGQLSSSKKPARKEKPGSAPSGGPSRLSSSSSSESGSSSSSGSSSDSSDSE
Bromodomain-containing protein 2, sequence (P25440 whole entry, the tested form may be a part): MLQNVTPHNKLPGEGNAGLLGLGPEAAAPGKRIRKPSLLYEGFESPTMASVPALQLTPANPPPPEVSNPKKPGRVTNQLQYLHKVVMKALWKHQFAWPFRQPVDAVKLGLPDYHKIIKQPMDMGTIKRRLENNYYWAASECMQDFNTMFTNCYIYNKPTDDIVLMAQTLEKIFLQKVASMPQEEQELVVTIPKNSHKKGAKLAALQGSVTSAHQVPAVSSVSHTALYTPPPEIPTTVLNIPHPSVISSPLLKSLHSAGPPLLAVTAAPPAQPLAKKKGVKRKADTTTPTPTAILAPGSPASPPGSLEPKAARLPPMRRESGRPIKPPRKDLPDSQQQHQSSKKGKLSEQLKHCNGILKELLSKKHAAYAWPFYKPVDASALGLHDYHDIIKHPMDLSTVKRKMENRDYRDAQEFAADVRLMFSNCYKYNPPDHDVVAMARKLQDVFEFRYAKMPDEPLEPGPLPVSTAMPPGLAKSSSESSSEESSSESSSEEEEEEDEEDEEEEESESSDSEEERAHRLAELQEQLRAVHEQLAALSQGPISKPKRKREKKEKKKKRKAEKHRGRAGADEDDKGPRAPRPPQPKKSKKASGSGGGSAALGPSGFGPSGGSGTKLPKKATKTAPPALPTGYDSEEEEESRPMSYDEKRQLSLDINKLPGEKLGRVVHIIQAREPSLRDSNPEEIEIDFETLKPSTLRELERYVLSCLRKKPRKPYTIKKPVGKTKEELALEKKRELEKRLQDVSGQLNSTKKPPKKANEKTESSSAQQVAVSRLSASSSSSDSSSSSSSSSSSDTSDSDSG

| Structure (SMILES) | IC50 (CREB-binding protein) [nM] | IC50 [1] [nM] | IC50 [2] [nM] | IC50 [3] [nM] |
| --- | --- | --- | --- | --- |
| COc1ncccc1-n1nc2c(c1C)C(c1ccc(F)cc1F)N(c1cc(C)c3nnc(C)n3c1)C2=O (stereo not given) | 16000 | 130 | 80 | 55 |
| Cc1cc(N2C(=O)c3nn(C(C)C)c(C)c3C2c2ccc(Cl)cc2F)cn2c(C)nnc12 (stereo not given) | 2600 | 120 | 60 | 71 |
| Cc1[nH]nc2c1C(c1ccc(Cl)cc1F)N(c1cc(C)c(=O)n(C)c1)C2=O (stereo not given) | 2800 | 270 | 170 | 190 |
| CCc1nn(CCOC)c2c1C(c1ccc(Cl)cc1)N(c1cc(C)c(=O)n(C)c1)C2=O (stereo not given) | 4800 | 52 | 44 |  |
